Measured values reported in paper PMC10107299, “Neutralizing the Impact of the Virulence Factor LecA from Pseudomonas aeruginosa on Human Cells with New Glycomimetic Inhibitors” (Angewandte Chemie (International Ed. in English), 2023).
Converted amounts (≈) assume the structure as drawn. Like-named read-outs stand apart in the source and are kept apart here.

How the values were obtained:
[1] = Kinetic solubility in TBS/Ca2+ buffer (HPLC-MS); format: physicochemical; conditions: aqueous buffer, kinetic from dmso stock; TBS/Ca2+ buffer pH 7.4, 1 % DMSO, N≥3; read-out: Solubility S (kinetic)
Description: Next, we quantified the solubility of at least one representative of each new class and of one parent bisacylhydrazone in aqueous media (Table 1). […]
TBS/Ca2+ buffer (20 mM Tris, 137 mM NaCl, 2.6 mM KCl at pH 7.4 supplemented with 1 mM […]
CaCl2) in presence of 25% DMSO. […]
Kinetic solubility was determined on the analytical HPLC-MS using Compass QuantAnalysis quantification software (Bruker). Samples were prepared from DMSO stock solutions by dilution with TBS/Ca2+ buffer to 100 µM with 1% DMSO present. Samples were incubated on a shaker for 1 h at r.t., centrifuged (21380 g, 20 min), supernatants were diluted with DMSO (1:3), analyzed by HPLC-MS and fitted to the individual calibration curves.
Every experiment was repeated independently at least three times. […]

[2] = In vitro metabolic stability, mouse liver microsomes; format: in vitro ADME; conditions: N=3, read-out: CLint MLM
Description: (§1) Acetonitrile and caffeine were dispensed using a Mantis Formulatrix. Then samples were centrifuged for 20 min at 2.270 x g at 4 °C and the supernatants were transferred to 96-well Greiner V-bottom plates. Peak areas of each compound and of the internal standard were analyzed using the MultiQuant 3.0 software (AB Sciex). Peak areas of the respective compound were normalized to the internal standard peak area and to the respective peak areas at time point 0 min: (C/D)/(A/B) with A: peak area of the compound at time point 0 min, B: peak area of the internal standard at time point 0 min, C: peak area of the compound at the respective time point, D: peak area of the internal standard at the respective time point.
(§2) In vitro metabolic stability assay
(§3) Liver microsomes (mouse and human, Thermo Fisher) were thawed slowly on ice. 20 mg/mL of microsomes, 2 µL of a 100 µM solution of every compound and 183 µL of 100 mM phosphate buffer were incubated 5 min at 37 °C in a water bath. Reactions were initiated using 10 µL of 20 mM NADPH (CarlRoth). Samples were incubated in three replicates at 37 °C under gentle agitation at 150 rpm. At 0, 5, 15, 30, and 60 min, reactions were terminated by the addition of 180 µL acetonitrile using a Mantis Formulatrix dispenser. Samples were vortexed for 5 min using an Eppendorf MixMate vortex mixer and centrifuged at 2.270 x g for 20 min at 4 °C. The supernatants were transferred to 96-well Greiner V-bottom plates, sealed and analyzed according to the section HPLC-MS analysis. Peak areas of the respective time point of the compounds were normalized to the peak area at time point 0 min. Then half-life was calculated using linear regression (Microsoft Excel). Clint [µL/min/mg protein] was calculated using the following formula: […]

[3] = In vitro metabolic stability, human liver microsomes; format: in vitro ADME; conditions: N=3, read-out: CLint HLM
Description: We then determined the in vitro metabolic stability in plasma and liver microsomes as well as plasma protein binding for a selected subset of the synthesized LecA inhibitors, i.e. D1, D2, H1, H2 and L2 and compared them to the parent bisacylhydrazone 14 (Table 2). […] The metabolic stability of the compounds differed in presence of human liver microsomes (HLM). Introduction of a pyridine ring decreased stability (H1 CLint=28.6 μL min^−1/mg protein, H2 CLint=32.5 μL min^−1/mg protein) compared to the benzene analogues (D1 CLint=21.9 μL min^−1/mg protein, D2 CLint=21.0 μL min^−1/mg protein) and to the parent acylhydrazone 14 (CLint=19.6 μL min^−1/mg protein). […]
as §1, with “mixer (Eppendorf). Acetonitrile” for “Acetonitrile”
as §2, §3

in vitro = in vitro ADME; conditions: pH 7.4, 37 °C
Description: Then, we analyzed the stability of the compounds in plasma. […] The observed increase in plasma stability of the tested amide derivatives compared to bisacylhydrazone 14 supports our design hypothesis for the isosteric replacement of the bisacylhydrazone linking motif. […]
Each compound dissolved in DMSO was added to mouse plasma (pH 7.4, 37 °C) or to human plasma (pH 7.4, 37 °C) to yield a final concentration of 1 µM. In addition, procaine and procainamide (dissolved in DMSO) were added to mouse plasma or to human plasma (pH 7.4, 37 °C) to yield a final concentration of 1 µM. Procaine served as positive control as it is unstable in mouse plasma. Procainamide served as negative control as it is stable in mouse plasma. The samples were incubated for 0 min, 15 min, 30 min, 60 min, 90 min, 120 min and 240 min at 37 °C. At each time point, 10 µl of the respective sample was extracted with 90 µL acetonitrile containing 12.5 ng/mL caffeine as internal standard for 5 min at 2000 rpm on a MixMate vortex […]
as §1, with “mixer (Eppendorf). Acetonitrile” for “Acetonitrile”, “point. […]” for “point.”
2 hours at 800 rpm on an Eppendorf MixMate vortex-mixer. Then samples were withdrawn from the respective chambers. To 25 µL of each dialysis sample, 25 µL of plasma and to 25 µL of plasma sample, 25 µL of dialysis buffer was added. Then 150 µL ice-cold extraction solvent (ACN/H2O (90:10) containing 12.5 ng/mL caffeine as internal standard) was added. Samples were incubated for 30 min on ice. Then samples were centrifuged at 4 °C at 2270 x g for 10 min.

P. aeruginosa PAO1 = assay: Invasion assay of P. aeruginosa PAO1 into H1299 cells; format: cell-based, Pseudomonas aeruginosa; conditions: PAO1 into H1299 cells, N≥4
Description: P. aeruginosa is able to invade non‐phagocytic cells via a lipid zipper mechanism.[10] Binding of LecA to the glycosphingolipid Gb3 followed by LecA‐induced receptor clustering plays a crucial role in this process. The LecA ligand 4‐nitrophenyl α‐ D‐galactopyranoside (PNPG) has been previously shown to interfere with these events at a high concentration of 10 mM leading to a reduction of bacterial invasiveness to 30–60 % as compared to untreated bacteria (100 % invasiveness).[10, 31] For invasion assays, H1299 cells were incubated with P. aeruginosa in presence and absence of LecA inhibitors, followed by killing of extracellular bacteria with the antibiotic amikacin. Then, all intracellular bacteria were released by lysis of the human cells and viable bacteria were quantified by plating. To assess the impact of LecA inhibitors on the invasiveness, the influence of the divalent LecA inhibitor L2 on bacterial invasion into host cells was evaluated and compared to PNPG. […] In contrast, the divalent LecA ligand L2 achieved an invasion decrease to 44 % already at 100 μM (Figure 5c). L2 was thus able to reach a similar reduction of invasion at a 100‐fold lower concentration than the one needed for PNPG. […]
lectin-inhibitor solution for 24 h at 37 °C. In order to depict exactly the same position for each wound, marker lines were drawn on the bottom of the 12-well plates for each well. The samples were imaged with an EVOS microscope (PEQLAB by VWR Life Sciences, Avantor […]
Excel. […]
A chromosomally GFP-tagged Gentamicin-resistant Pseudomonas aeruginosa PAO1 strain was cultured (LB medium supplemented with 60 µg/mL Gentamicin, 37 °C, 180 rpm, 16 h) and invasion assays were performed in analogy to Eierhoff et al..[13] 1.5 x 10^4 H1299 cells per well were seeded one day prior to the invasion assay in a 96-well plate with flat bottom. An […]
overnight culture of P. aeruginosa was centrifuged for 5 min at 3000 x g, washed with PBS (- /-) and re-suspended in RPMI 1640 medium. The newly synthesized divalent LecA ligand L2 was compared to 4-nitrophenyl α-D-galactopyranoside (PNPG; Sigma-Aldrich, Chemie GmbH, Darmstadt, Germany). […]
Subsequently, cells were washed three times with DPBS and lysed by incubation with 0.25% (v/v) Triton X-100 (Carl Roth GmbH & Co. KG, Karlsruhe, Germany) for 5 min at 37 °C and 180 rpm. […] Bacterial colonies were counted the next day. […] The invasion rate was calculated as the number of intracellularly localized bacteria divided by the total number of non-treated bacteria, bacteria that were not treated with any ligands and neither amikacin, thus the number of P. aeruginosa that successfully invaded or stayed attached to the host cells. Experiments were repeated independently at least four times (N ≥ 4) and evaluated […]

P. aeruginosa = system: P. aeruginosa; design: method as in PMID 25136128, PMID 25044671; conditions: 10 mM; cited from earlier work

O=C(N/N=C/c1ccc(OCCOc2ccc(/C=N/NC(=O)c3ccc(O[C@@H]4O[C@H](CO)[C@H](O)[C@H](O)[C@H]4O)cc3)cc2)cc1)c1ccc(O[C@@H]2O[C@H](CO)[C@H](O)[C@H](O)[C@H]2O)cc1 [Compound 14, reference compound]
solubility kinetic at 1 h [1]: 1.6 ± 0.4 µM (≈ 1.38 µg/mL) | microsomal CLint at 1 µM [2]: < 23 µL/min/mg | microsomal CLint at 1 µM [3]: 19.6 µL/min/mg | half-life at 1 µM (in vitro; human plasma, read-out: Plasma stability t1/2 Human): 2.06 h | half-life at 1 µM (in vitro; mouse plasma, read-out: Plasma stability t1/2 Mouse): 0.815 h

O=[N+]([O-])c1ccc(O[C@H]2O[C@H](CO)[C@H](O)[C@H](O)[C@H]2O)cc1 [PNPG, 4-nitrophenyl α-D-galactopyranoside, reference compound]
Bacterial invasiveness (untreated bacteria 100 %) (P. aeruginosa PAO1; 100 μM inhibitor): 89% | Bacterial invasiveness (untreated bacteria 100 %) (P. aeruginosa PAO1; 10 mM inhibitor): 44% | Bacterial invasiveness (untreated bacteria 100 %) (P. aeruginosa): 30–60%
